Data published in patent US8278465B2, “Coumarin derivative having antitumor activity” (Chugai Seiyaku Kabushiki Kaisha, priority 2006, dated 2012).
Read-outs that look alike come from different tables or passages of the source.

How the values were obtained:
[1] = Calculation of AUC value (plasma concentration after oral administration); assay type: in vivo; details: BALB/c (nu/nu), mouse, mice, plasma 15 min to 24 h, trapezoidal method, read-out: AUC (area under the blood concentration-time curve)
Description: The AUC (area under the blood concentration-time curve) values of the compounds and salts shown in Table 2 (only compound 1j-2-16-2 is Na salt; the others are free form) were calculated by administering the test substance to an animal and measuring its concentration in plasma. As the animals, BALB/c (nu/nu) mice (4 to 6 weeks old) procured from Japan Charles River Laboratories were used after a one-week taming period. As for the test substances other than Comp. 1, 5 mg/mL of the substance solution was given at 0.2 mL/10 g body weight (dose of the test substance: 100 mg/kg body weight). As for Comp. 1, 10 mg/mL of the substance solution was given at 0.2 mL/10 g body weight (dose of the test substance: 200 mg/kg body weight). Administration of the substance solution to a mouse was performed forcibly using an oral feeding tube. Blood was collected from the eye pit 15 minutes, 2 hours, 7 hours and 24 hours after administration of the substance solution, using a hematocrit tube treated with heparin. Paraoxon (final concentration: 1 mM) was added to the collected blood as a stabilizer, the mixture was centrifuged at 10000 rpm for 3 minutes, and plasma was separated. The plasma was stored in a freezer set to −80° C. until the time of measurement. The measurement was carried out as follows. 100 μL of distilled water to which the internal standard substance (a structural homolog, concentration adjusted appropriately depending on the compound used) had been added was added to 5 μL of the plasma, and then, a measurement sample was prepared through solid phase extraction processing using an Oasis HLB μElution Plate (Waters), and was analyzed by LC/MS/MS. The plasma concentration was calculated using a calibration curve prepared based on the ratio of standard substance to internal standard substance in control plasma of mice. The AUC was calculated from the data of plasma concentration of the drug by the trapezoidal method using Microsoft Excel 2003 (Microsoft).

[2] = tested on: human colon cancer cell line HCT116; experiment: Measurement of cell proliferation inhibitory activity (Cell Counting Kit-8); assay type: cell-based; details: Homo sapiens, HCT-116, 96 h, HCT116, 4 days incubation, read-out: IC50 (50% proliferation inhibitory concentration)
Description: The cell proliferation inhibitory activities of the compounds and salts shown in Tables 1-1, 1-2 and Table 2 were measured as follows, using the human colon cancer cell line HCT116 (American Type Culture Collection, VA, USA). 2000 to 3000 cells per well of the human colon cancer cell line HCT116 was placed in a 96-well culture plate, a predetermined concentration (0.00038 μM, 0.00076 μM, 0.0015 μM, 0.0031 μM, 0.0061 μM, 0.012 μM, 0.024 μM, 0.049 μM, 0.098 μM, 0.195 μM, 0.39 μM, 0.78 μM, 1.56 μM, 3.13 μM, 6.25 μM, 12.5 μM, 25 μM or 50 μM) of the test substance was added thereto, and the mixture was then incubated at 37° C. under 5% CO2 environment for 4 days. On day 4 of incubation, the Cell Counting Kit-8 solution (Dojindo Laboratories) was added, the absorbance (measurement wavelength: 450 nm; reference wavelength: 615 nm) was measured following the protocol attached to the kit, and the 50% proliferation inhibitory concentration (IC50) was calculated.

With `CCS(=O)(=O)Nc1cccc(Cc2c(C)c3cc(Cl)c(Oc4ncccn4)cc3oc2=O)c1` [Comp. 1, reference compound] as the molecule, how does the AUC ([1]; 200 mg/kg body weight (Comp. 1)) read?
The AUC was 97.6 µM·h.

And the IC50 ([2]; Table 1-2)?
The IC50 was 160 nM.

What does the source list for `CNS(=O)(=O)Nc1cccc(Cc2c(C)c3ccc(OC(=O)N(C)C)cc3oc2=O)n1` [Compound 1j-1-13-2, Dimethylcarbamic acid 4-methyl-3-{6-(methylaminosulfonyl)aminopyridin-2-ylmethyl}-2-oxo-2H-1-benzopyran-7-yl ester]?
AUC ([1]; in vivo, 100 mg/kg body weight): 314 µM·h; IC50 ([2]; Table 2): 271 nM

Which AUC ([1]; 100 mg/kg body weight) does the source give for `Cc1c(Cc2cccc(NS(N)(=O)=O)c2F)c(=O)oc2cc(Oc3ncccn3)ccc12` [Compound 1j-2-4-1, 3-{2-Fluoro-3-(aminosulfonyl)aminobenzyl}-4-methyl-7-(pyrimidin-2-yloxy)-2-oxo-2H-1-benzopyran] here?
Its AUC is 811 µM·h.

What about the IC50 ([2]; Table 2) of the same molecule?
The IC50 was 150 nM.

Which AUC ([1]; 100 mg/kg body weight) does the source give for `CNS(=O)(=O)Nc1cccc(Cc2c(C)c3ccc(Oc4ncccn4)cc3oc2=O)c1F` [Compound 1j-2-4-2, 3-{2-Fluoro-3-(methylaminosulfonyl)aminobenzyl}-4-methyl-7-(pyrimidin-2-yloxy)-2-oxo-2H-1-benzopyran] here?
Its AUC is 425 µM·h.

What about the IC50 ([2]; Table 2) of the same molecule?
The IC50 was 44.7 nM.

Which results are given for `CNS(=O)(=O)Nc1cccc(Cc2c(CF)c3ccc(Oc4ncccn4)cc3oc2=O)c1F` [Compound 1j-2-4-2F, 3-{2-Fluoro-3-(methylaminosulfonyl)aminobenzyl}-4-fluoromethyl-7-(pyrimidin-2-yloxy)-2-oxo-2H-1-benzopyran]?
AUC ([1]; 100 mg/kg body weight): 317 µM·h; IC50 ([2]; Table 2): 165 nM

For `CNS(=O)(=O)Nc1cccc(Cc2c(C)c3cc(F)c(Oc4ncccn4)cc3oc2=O)c1F` [Compound 1j-2-5-2, 3-{2-Fluoro-3-(methylaminosulfonyl)aminobenzyl}-4-methyl-7-(pyrimidin-2-yloxy)-6-fluoro-2-oxo-2H-1-benzopyran], which AUC ([1]; 100 mg/kg body weight) is on record?
Its AUC is 344 µM·h.

And the IC50 ([2]; Table 2)?
The IC50 was 75.1 nM.

Which results are given for `CNS(=O)(=O)Nc1cc(Cc2c(C)c3cc(Cl)c(Oc4ncccn4)cc3oc2=O)ccn1` [Compound 1j-2-12-2, 3-{2-(Methylaminosulfonyl)aminopyridin-4-ylmethyl}-4-methyl-7-(pyrimidin-2-yloxy)-6-chloro-2-oxo-2H-1-benzopyran]?
AUC ([1]; 100 mg/kg body weight): 252 µM·h; IC50 ([2]; Table 2): 282 nM

Which results are given for `CNS(=O)(=O)Nc1nccc(Cc2c(C)c3ccc(Oc4ncccn4)cc3oc2=O)c1F` [Compound 1j-2-16-2, 3-{2-(Methylaminosulfonyl)amino-3-fluoropyridin-4-ylmethyl}-4-methyl-7-(pyrimidin-2-yloxy)-2-oxo-2H-1-benzopyran]?
AUC ([1]; 100 mg/kg body weight): 3200 µM·h; IC50 ([2]; Table 2): 40.8 nM

For `CNS(=O)(=O)Nc1cccc(Cc2c(C)c3ccc(Oc4nccs4)cc3oc2=O)c1` [Compound 1j-3-1-2, 3-{3-(Methylaminosulfonyl)aminobenzyl}-4-methyl-7-(thiazol-2-yloxy)-2-oxo-2H-1-benzopyran], which AUC ([1]; 100 mg/kg body weight) is on record?
Its AUC is 199 µM·h.

And the IC50 ([2]; Table 2)?
Its IC50 is 164 nM.

For `CNS(=O)(=O)Nc1cccc(Cc2c(C)c3cc(C)c(Oc4nccs4)cc3oc2=O)c1` [Compound 1j-3-8-2, 3-{3-(Methylaminosulfonyl)aminobenzyl}-4-methyl-7-(thiazol-2-yloxy)-6-methyl-2-oxo-2H-1-benzopyran], which AUC ([1]; 100 mg/kg body weight) is on record?
The AUC was 149 µM·h.

What about the IC50 ([2]; Table 2) of the same molecule?
Its IC50 is 96.8 nM.

Which AUC ([1]; 100 mg/kg body weight) does the source give for `CNC(=O)CS(=O)(=O)Nc1cccc(Cc2c(C)c3ccc(Oc4nccs4)cc3oc2=O)c1F` [Compound 1o-3-4-2, 2-{2-Fluoro-3-[4-methyl-2-oxo-7-(thiazol-2-yloxy)-2H-1-benzopyran-3-ylmethyl]phenylsulfamoyl}-N-methyl-acetamide] here?
The AUC was 367 µM·h.

What about the IC50 ([2]; Table 2) of the same molecule?
The IC50 was 325 nM.
